# Assay results from patent US20090220621A1, “Pharmaceutical compositions of a non-enteric coated proton pump inhibitor with a carbonate salt and bicarbonate salt combination” (priority 2000, published 2009).
# “And” between values parts separate entries of the source, which are not always exact repeats. Equal values may be shown once.
# Tests used:
# Type in all cases: physicochemical
# [1] = Gas and CO2 generated by neutralization of simulated gastric fluid (Orsat apparatus, standard CO2 assay)
# Text: To quantify the gas produced by the neutralization of simulated gastric fluid ([…]) by carbicarb and by sodium bicarbonate in vitro, a standard CO2 assay technique was utilized (see USP 24-NF 19 Beta, The United States Pharmacopeia 2000, p. 306)
# (§1) Aqueous solutions to be tested were made up from starting materials sodium carbonate, (anhydrous, available from Mallinckrodt) and sodium bicarbonate (available from Mallinckrodt). An 8.4% sodium bicarbonate solution and an 8.4% carbicarb solution (containing equimolar amounts of sodium bicarbonate and sodium carbonate) were tested as follows.
# The specimen gas was generated by reacting either 450 mL simulated gastric fluid (SGF) with 50 mL of the carbicarb solution; or by reacting 45 ml of simulated gastric fluid with 5 ml of sodium bicarbonate solution in a 500 mL Erlenmeyer flask.
# To make Simulated Gastric Fluid (SGF) 1 g sodium chloride was transferred to a 500-mL volumetric flask. After adding 1.6 g pepsin, 25 mL 2 N hydrochloric acid was added and swirled to mix. The resultant solution could then be diluted to the appropriate volume with water.
# The amount of gas generated in a twenty-minute time period was measured in an Orsat Glass Vapor Absorption Apparatus, by the standard assay technique. Two tests were run for each solution. The volume of CO2 generated was calculated from the difference in the initial volume of gas produced (ml) and the final volume of gas remaining (ml).
# [2] = Titration of simulated gastric fluid with acid neutralizer solution (gastric acid neutralizing capacity); details: 50 mL SGF
# Method: To determine and compare the gastric acid neutralizing capacity of sodium bicarbonate solution to carbicarb solution, the following experiment was performed.
# as §1
# 50 mL simulated gastric fluid (SGF, prepared according to the procedure described in Example 1) was pipetted into an Erlenmeyer flask. Four drops of methyl red, then four drops of phenolphthalein were then added to the flask. The pH of solution was monitored with a pH electrode. The solution to be tested was added to a 5-mL buret. The gastric media in the flask was then titrated with the test solution to an endpoint within 0.2 pH units of pH 6.5 (as indicated by the color change and pH reading). Then, titration was resumed, to an endpoint within 0.2 pH units of pH 8.0 (as indicated by the color change and pH reading).
# [3] = Stability of lansoprazole in simulated gastric fluid with and without carbicarb (chromatographic assay); details: for % labeled amount of lansoprazole remaining: Sample in water; for % of the drug degraded: at 60 minutes in SGF
# Method: Lansoprazole degrades in acid and is stable in base. This study was performed to determine 1) how quickly lansoprazole degrades in simulated gastric fluid (SGF); and 2) whether a high pH-buffering agent (carbicarb which is an equimolar mixture of sodium carbonate and sodium bicarbonate) could be used to retard the degradation of lansoprazole in SGF. All the experiments were conducted at room temperature (22° C.±2° C.).
# The PPI test sample included lansoprazole (30 mg); mannitol (60 mg), meglumine (30 mg) and sodium hydroxide (3 mg).
# Then 5.0 mL 2 N sodium hydroxide solution was added to the 0-minutes beaker with mixing. To each of the 5 remaining beakers, 10.0 mL of 8.4% carbicarb solution was added and stirred to mix. At the appropriate time interval (corresponding to the individual beaker numbers), 5.0 mL 2 N sodium hydroxide solution was added to stop the reaction. A portion of the resulting solution was diluted with pH 10 diluent. 10 μL of the resulting solution was then injected into the chromatographic system for assay.
# Granular formulations of lansoprazole, including carbicarb were also made and tested. The stability of the granular formulations was tested according to the procedure of Example 3. The granular formulations of lansoprazole for this example were prepared as follows.
# The coherent mass containing lansoprazole, carbicarb, lactose and sucrose solution was prepared as described above, in Example 3. This coherent mass was passed through a 20-mesh screen and the resulting granules were dried at 50° C. for 12 hours. Granules containing 30-mg lansoprazole were transferred to an amber color container along with and an equal weight of flavor granules. 10 ml of water ((HPLC grade, Fisher Scientific, Pittsburgh, Pa.) was added to the container with gentle shaking to reconstitute the suspension. The resulting suspension of lansoprazole was tested for stability in simulated gastric fluid as described earlier in Experiment 3.
# [4] = 450 mL SGF and 50 mL test solution, ten times the 45 mL/5 mL values
"Volume of CO2 ([1]; 45 mL SGF and 5 mL test solution, initial minus residual gas volume)","Initial Gas Volume [1, 4]","Volume of CO2 [1, 4]",Volume of Acid Neutralizer Solution Required ([2]; pH after adding neutralizer 7.0) [mL],Volume of Acid Neutralizer Solution Required ([2]; pH after adding neutralizer 8.0) [mL],Volume of Acid Neutralizer Solution Required ([2]; pH of simulated gastric fluid after adding neutralizer 1.2) [mL],% labeled amount of lansoprazole remaining ([3]; time in SGF 30 minutes) [%],% labeled amount of lansoprazole remaining ([3]; time in SGF 45 minutes) [%],% labeled amount of lansoprazole remaining ([3]; time in SGF 60 minutes) [%],% of the drug degraded ([3]; constituted with carbicarb solution) [%],% of the drug degraded ([3]; reconstituted with water) [%],SMILES
2.9 mL and 5.3 mL,930.0 mL and 820.0 mL,29.0 mL and 53.0 mL,5.00,6.20,0,–,–,–,–,–,"O=C([O-])O.[Na+] [8.4% sodium bicarbonate solution, sodium bicarbonate]"
–,–,–,–,–,–,4.1,2.7,2.0,3.5,98,Cc1c(OCC(F)(F)F)ccnc1C[S+]([O-])c1nc2ccccc2[nH]1 (centres unmarked) [lansoprazole]
